# Test results from US6140367A, “Use of ethylene diamine disuccinate for preparing a medicament with antiviral properties” (priority 1996, dated 2000).
# Entries after “also recorded” stand apart in the source; their conditions may differ. Where two headings read alike, the source gives them in different places.
# Legend:
# [1] = test system: cytomegaloviruses (CMV laboratory strain AD169); experiment: ELISA of production of CMV late antigens in HFF cells; assay type: cell-based; conditions: for therapeutic index: quotient TC50/IC50, HFF cells
# Procedure: Antiviral activity: cells and viruses employed
# (§1) Human foreskin fibroblasts (HFF) are grown in a nutrient medium consisting of Eagle's minimal essential medium (EMEM) to which 10% fetal calf serum has been added.
# The CMV laboratory strain AD169 is used. The viruses are propagated in EMEM nutrient medium to which 4% fetal calf serum has been added (maintenance medium). The virus titer is established by determining so-called immediate early antigen forming units (IEFUs) which are formed in the maintenance medium (Gerna et al. (1992), Antiviral Res. Vol. 19: 333-345).
# The antiviral effect of the substances on the propagation of cytomegaloviruses is determined by different parameters:
# In an ELISA (enzyme-linked immunosorbent assay), the production of CMV late antigens is determined. […] The substances according to the invention have an IC50 value of 4 μg/ml±1 μg/ml.
# [2] = test system: Human foreskin fibroblasts (HFF); experiment: in vitro; assay type: cell-based; conditions: hff cells
# Procedure: as §1
# (§2) The cell vitality is measured in an HFF cell culture using an MTT assay. The result is expressed as the TC50 value, which is the concentration at which 50% of the cells tested are still vital. In HFF cells, it is 435 μg/ml for the substances according to the invention.
# in vitro = assay type: cell-based; conditions: human, hff cells
# Procedure: as §1, §2
# [3] = cited from earlier work
# [4] = test system: DTH (delayed type hypersensitivity) reaction; conditions: intraperitoneal, mice; cited from earlier work
# T cells = conditions: in vitro; cited from earlier work
# antibody production = conditions: intraperitoneal, mice; cited from earlier work
# lymphocyte proliferation = experiment: phytohemagglutinin stimulated lymphocyte proliferation ([3H]-thymidine); assay type: cell-based
# Procedure: For a proliferation assay, lymphocyte cultures were started in mixed lymphocyte cultures (MLC), or with 1% phytohemagglutinin (PHA), in a total volume of 200 μl of culture medium. 18 to 20 hours before the measurement, 0.1 μCi methyl-[^3 H]-thymidine (NEN, Germany) was added. Radiolabeled DNA was harvested on filter membranes (Schleicher & Schull, Germany). The radioactivity was quantified with a scintillation counter (Zinsser, Germany). The sample PBL pertains to peripheral blood lymphocytes as a control.
# B cells = conditions: in vitro; cited from earlier work
# phospholipase C = conditions: cited from earlier work
# phospholipase D = conditions: cited from earlier work
# Varicella zoster viruses = conditions: literature; cited from earlier work
# Epstein-Barr viruses = conditions: literature; cited from earlier work
# Herpes simplex viruses = conditions: literature; cited from earlier work
# [5] = literature; cited from earlier work
# human cytomegaloviruses = conditions: literature; cited from earlier work
# [6] = mouse, in vivo; cited from earlier work
# hepatitis viruses = conditions: literature, cell cultures; cited from earlier work
# [7] = test system: viral reverse transcriptases; conditions: cited from earlier work
# viral DNA polymerases = conditions: cited from earlier work
# [8] = production of CMV late antigens, ELISA, HFF cells
# [9] = Human betaherpesvirus 5, AD169, production of CMV late antigens, ELISA, HFF cells, read-out: inhibitory concentration IC50
compound,measurement,setting,value
"CC(CN[C@@H](CCC(=O)O)C(=O)O)N[C@@H](CCC(=O)O)C(=O)O (stereo partly drawn) [(S,S)-N,N'-propylenediamine diglutamate]",inhibitory concentration IC50,[1]; [8],≥ 100 µg/mL
same,toxic concentration TC50,[2],≥ 100 µg/mL
"O=C(O)C[C@@H](NCCN[C@H](CC(=O)O)C(=O)O)C(=O)O [(R,R)-N,N'-ethylenediamine disuccinate]",IC50,[1]; [9],41 µg/mL
same,therapeutic index,[1],≥ 2.2
same,CC50,in vitro,≥ 100 µg/mL
"O=C(O)C[C@H](NCCN[C@@H](CC(=O)O)C(=O)O)C(=O)O [(S,S)-N,N'-ethylenediamine disuccinate]",toxicity in mice,[3],relatively low
same,IC50,"[1]; Human betaherpesvirus 5, AD169, HFF, activity against cytomegaloviruses, read-out: IC50",4 µg/mL
same,therapeutic index,[1],109
same,DTH (delayed type hypersensitivity) reaction,[4],suppressed
same,blastogenesis of T cells,T cells,suppressed
same,antibody production,antibody production,suppressed
same,immunosuppressive activity,lymphocyte proliferation,inhibition of phytohemagglutinin stimulated lymphocyte proliferation
same,CC50,in vitro,435 µg/mL
same,blastogenesis of B cells,B cells,suppressed
same,inhibition of phospholipase C,phospholipase C,inhibits
same,inhibition of phospholipase D,phospholipase D,inhibits
O=C(O)CN(CCN(CC(=O)O)CC(=O)O)CCN(CC(=O)O)CC(=O)O [diethylenetriaminepentaacetic acid],IC50,[1]; [9],4 µg/mL
same,therapeutic index,[1],31
same,CC50,in vitro,123 µg/mL
Nc1nc(O)c2ncn(COC(CO)CO)c2n1 [Ganciclovir],"antiviral activity, Varicella zoster viruses",Varicella zoster viruses,effective
same,"antiviral activity, Epstein-Barr viruses",Epstein-Barr viruses,effective
same,"antiviral activity, Herpes simplex viruses",Herpes simplex viruses,effective
same,toxicity / side effects,[5],high side-effect level; also recorded: leads to neutropenia
same,resistance of cytomegaloviruses,human cytomegaloviruses,more resistant
same,tumor development,[6],observed to develop tumors
"(R,R)-N,N'-propylenediamine disuccinate",inhibitory concentration IC50,[1]; [8],≥ 100 µg/mL
same,toxic concentration TC50,[2],≥ 100 µg/mL
CC(=O)N(O)CCCCCNC(=O)CCC(=O)N(O)CCCCCNC(=O)CCC(=O)N(O)CCCCCN [desferrioxamine],IC50,[1]; [9],4.1 µg/mL
same,therapeutic index,[1],3
same,"antiviral activity, Varicella zoster viruses",Varicella zoster viruses,successfully used
same,"antiviral activity, Epstein-Barr viruses",Epstein-Barr viruses,successfully used
same,"antiviral activity, Herpes simplex viruses",Herpes simplex viruses,successfully used
same,CC50,in vitro,12 µg/mL
same,toxicity / side effects,[5],low toxicity
same,"antiviral activity, cytomegaloviruses",human cytomegaloviruses,successfully used
"CC(CN[C@@H](CC(=O)O)C(=O)O)N[C@@H](CC(=O)O)C(=O)O (stereo partly drawn) [(S,S)-N,N'-propylenediamine disuccinate]",inhibitory concentration IC50,[1]; [8],≥ 100 µg/mL
same,toxic concentration TC50,[2],≥ 100 µg/mL
O=C(O)P(=O)(O)O [Foscarnet],"antiviral activity, hepatitis viruses",hepatitis viruses,selective activity
same,inhibition of viral reverse transcriptases,[7],inhibition
same,"antiviral activity, Varicella zoster viruses",Varicella zoster viruses,selective activity
same,"antiviral activity, Epstein-Barr viruses",Epstein-Barr viruses,selective activity
same,"antiviral activity, Herpes simplex viruses",Herpes simplex viruses,selective activity
same,inhibition of viral DNA polymerases,viral DNA polymerases,inhibition
same,"antiviral activity, cytomegaloviruses",human cytomegaloviruses,virostatic effect
same,resistance of cytomegaloviruses,human cytomegaloviruses,more resistant
"O=C(O)C[C@H](NCCN[C@H](CC(=O)O)C(=O)O)C(=O)O [(R,S)-N,N'-ethylenediamine disuccinate]",IC50,[1]; [9],46 µg/mL
same,therapeutic index,[1],≥ 2.2
same,CC50,in vitro,≥ 100 µg/mL
"O=C(O)CC[C@H](NCCN[C@@H](CCC(=O)O)C(=O)O)C(=O)O [(S,S)-N,N'-ethylenediamine diglutamate]",IC50,[1]; [9],≥ 100 µg/mL
same,CC50,in vitro,≥ 100 µg/mL
